Ki, IC50 and EC50 data for six compounds are collected here from patent US20040116489A1, “Synthetic excitatory amino acids” (priority 2003, published 2004).

The target in experiment [1] is T1, human mGluR3 (Homo sapiens, UniProt Q14832).
T1 construct: expressed in transfected cells; host or cells: RGT cells
As to the kind of experiment: [3H]LY341495 displacement binding, mGlu3. As to conditions: displacement of [3H]LY341495; receptors expressed in RGT cells; read-out: Ki (nM) ± SEM mGlu3, effects on [3H]LY341495 binding. Here is the method:
(§1) To study the ability to affect receptor binding of compounds of the present invention in comparison to compounds of U.S. Pat. No. 5,958,960, displacement of a high affinity mGluR2 antagonist radioligand [^3H]LY341495 from recombinant human mGluR2 and human mGluR3 receptors expressed in RGT cells was determined.
A general note: In a radioligand displacement assay an active substance lowers the binding of a labelled ligand.

The target in experiment [2] is T2, recombinant human mGluR2 (Homo sapiens, UniProt Q14416).
T2 construct: expressed in transfected cells; host or cells: RGT cells
Put plainly: [3H]LY341495 displacement binding, mGlu2. As to conditions: displacement of [3H]LY341495; receptors expressed in RGT cells; read-out: Ki (nM) ± SEM mGlu2, effects on [3H]LY341495 binding. Here is the method: as §1

In experiment [3] the target is T3, recombinant mGlu2 receptors (Homo sapiens, UniProt Q14416).
T3 construct: expressed in transfected cells
As to the kind of experiment: forskolin-stimulated cAMP accumulation in cells expressing mGlu2. It counts as cell-based. The conditions noted are these: for IC50: antagonist: blocks agonist induced decrease in forskolin-stimulated cAMP, read-out: IC50 (nM) ± SEM mGlu2, forskolin-stimulated cAMP accumulation; for EC50: agonist: reduces cAMP accumulation to 50% of the controls, read-out: EC50 (nM) ± SEM mGlu2, forskolin-stimulated cAMP accumulation. Here is the method: (§2) To study the functional effect of compounds of the present invention in comparison to compounds of U.S. Pat. No. 5,958,960, forskolin stimulated c-AMP production in cells expressing recombinant mGlu2 and mGlu3 receptors was determined. As mGlu2 and mGlu3 receptors are negatively coupled to adenyl cyclase, activity of an agonist decreases forskolin-stimulated accumulation of cyclic adenosine monophosphate (cAMP) and is reported as the concentration necessary to reduce C-AMP accumulation to 50% of the controls (EC50, nM). The activity of an anatgonist blocks the agonist induced decrease in forskolin-stimulated accumulation of cyclic adenosine monophosphate (cAMP) and is reported as the concentration necessary to inhibit the reduction of C-AMP accumulation to 50% of the controls (IC50, nM).
(In general: Changes in cAMP serve as a functional read-out for many G protein-coupled receptors.)

The target in experiment [4] is T4, recombinant mGlu3 receptors (Homo sapiens, UniProt Q14832).
T4 construct: expressed in transfected cells
As to the kind of experiment: forskolin-stimulated cAMP accumulation in cells expressing mGlu3. It counts as cell-based. The conditions noted are these: for IC50: antagonist: blocks agonist induced decrease in forskolin-stimulated cAMP, read-out: IC50 (nM) ± SEM mGlu3, forskolin-stimulated cAMP accumulation; for EC50: agonist: reduces cAMP accumulation to 50% of the controls, read-out: EC50 (nM) ± SEM mGlu3, forskolin-stimulated cAMP accumulation. Here is the method:
as §2

T3 sequence (Q14416 19-872): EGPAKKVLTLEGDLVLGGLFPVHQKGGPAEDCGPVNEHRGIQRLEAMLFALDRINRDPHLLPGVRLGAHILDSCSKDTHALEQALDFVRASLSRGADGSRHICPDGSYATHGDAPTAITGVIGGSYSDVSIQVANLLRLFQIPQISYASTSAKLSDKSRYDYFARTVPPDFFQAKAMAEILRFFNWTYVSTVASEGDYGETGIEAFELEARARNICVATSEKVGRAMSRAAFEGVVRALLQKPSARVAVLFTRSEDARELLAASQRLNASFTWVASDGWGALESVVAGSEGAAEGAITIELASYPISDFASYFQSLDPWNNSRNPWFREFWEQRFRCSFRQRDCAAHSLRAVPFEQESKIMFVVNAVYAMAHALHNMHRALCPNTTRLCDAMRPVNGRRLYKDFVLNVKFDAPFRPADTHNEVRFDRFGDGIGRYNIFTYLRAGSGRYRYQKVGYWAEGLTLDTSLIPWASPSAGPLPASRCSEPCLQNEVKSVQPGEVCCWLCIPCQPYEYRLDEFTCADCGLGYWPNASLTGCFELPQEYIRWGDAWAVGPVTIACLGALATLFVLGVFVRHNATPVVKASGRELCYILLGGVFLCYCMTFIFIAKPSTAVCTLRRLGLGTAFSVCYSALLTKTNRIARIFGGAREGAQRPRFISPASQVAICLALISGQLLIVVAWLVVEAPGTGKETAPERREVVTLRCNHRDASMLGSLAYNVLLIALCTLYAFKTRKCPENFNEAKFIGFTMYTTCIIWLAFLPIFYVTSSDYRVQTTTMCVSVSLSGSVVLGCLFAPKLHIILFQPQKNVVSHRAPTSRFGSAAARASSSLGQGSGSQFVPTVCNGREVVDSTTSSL
T2 sequence (Q14416 19-872): as above
T4 sequence (Q14832 23-879): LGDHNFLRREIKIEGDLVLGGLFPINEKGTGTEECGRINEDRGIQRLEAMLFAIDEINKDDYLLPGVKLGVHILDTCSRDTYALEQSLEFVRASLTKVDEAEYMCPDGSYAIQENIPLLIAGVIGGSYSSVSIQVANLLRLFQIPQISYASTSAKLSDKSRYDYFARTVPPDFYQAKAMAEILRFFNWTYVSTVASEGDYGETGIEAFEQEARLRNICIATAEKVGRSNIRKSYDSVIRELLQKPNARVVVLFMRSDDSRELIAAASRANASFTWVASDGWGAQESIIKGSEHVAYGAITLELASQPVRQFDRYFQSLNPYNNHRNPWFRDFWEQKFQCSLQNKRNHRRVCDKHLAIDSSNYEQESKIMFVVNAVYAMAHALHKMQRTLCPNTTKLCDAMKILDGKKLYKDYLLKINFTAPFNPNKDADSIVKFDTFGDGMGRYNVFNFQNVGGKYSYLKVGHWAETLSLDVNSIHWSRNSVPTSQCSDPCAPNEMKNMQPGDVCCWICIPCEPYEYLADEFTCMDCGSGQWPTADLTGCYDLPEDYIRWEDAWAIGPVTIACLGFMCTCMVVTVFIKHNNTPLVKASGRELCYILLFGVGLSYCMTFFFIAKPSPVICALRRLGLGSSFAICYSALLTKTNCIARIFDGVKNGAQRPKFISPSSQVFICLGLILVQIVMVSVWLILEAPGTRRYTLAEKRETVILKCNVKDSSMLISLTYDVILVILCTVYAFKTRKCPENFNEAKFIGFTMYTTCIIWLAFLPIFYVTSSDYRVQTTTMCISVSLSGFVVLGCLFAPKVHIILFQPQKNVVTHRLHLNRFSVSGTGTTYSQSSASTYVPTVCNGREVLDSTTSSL
T1 sequence (Q14832 23-879): as above

By Ki is commonly meant the dissociation constant of the complex between target and ligand, obtained from inhibition or displacement. A word on the IC50: it is the concentration at which inhibition is half-maximal. In the case of `N[C@@]1(C(=O)O)C[C@@H](NC(=O)c2ccccc2)[C@H]2[C@H](C(=O)O)[C@H]21` (relative stereo) [1S*, 2S*, 4R*, 5R*, 6S*) 2-Amino-4-benzoylaminobicyclo[3.1.0]hexane-2,6-dicarboxylic acid], the inhibition constant (Ki) in experiment [1] was determined as 393 ± 17.8 nM; in experiment [2] it was 607 ± 10.2 nM. For the same compound, the figures for the IC50 in experiment [3] and in experiment [4] were 4060 nM and 9520 nM, respectively.

For the compound `CNC(=O)N[C@@H]1C[C@@](N)(C(=O)O)[C@@H]2[C@@H](C(=O)O)[C@@H]21` (relative stereo) [(1S*, 2S*, 4R*, 5R*, 6S*) 2-Amino-4-(3-methylureido)bicyclo[3.1.0]hexane-2,6-dicarboxylic acid], the Ki was found to be 408 ± 25.4 nM in experiment [1] and 468 ± 29 nM in experiment [2]. Moreover, the IC50 amounted to 3220 nM in experiment [3] and 6270 nM in experiment [4].

For the compound `CC(=O)N[C@@H]1C[C@@](N)(C(=O)O)[C@@H]2[C@@H](C(=O)O)[C@@H]21` (relative stereo) [(1S*, 2S*, 4R*, 5R*, 6S*) 4-Acetylamino-2-aminobicyclo[3.1.0]hexane-2,6-dicarboxylic acid], the Ki in experiment [1] amounted to 399 ± 67.8 nM; in experiment [2], 638 ± 59.6 nM. The IC50 is 4300 nM in experiment [3] and 11100 nM in experiment [4].

By EC50 is commonly meant the midpoint of the concentration-response curve. In the case of `CNC(=O)N[C@H]1C[C@@](N)(C(=O)O)[C@@H]2[C@@H](C(=O)O)[C@@H]21` (relative stereo) [Example 20, (1S*, 2S*, 4S*, 5R*, 6S*) 2-Amino-4-(3-methyl-ureido)-bicyclo[3.1.0]hexane-2,6-dicarboxylic acid], the inhibitory constant (Ki) was 23 ± 2.6 nM in experiment [1] and 254 ± 10.7 nM in experiment [2]. Also, the concentration giving a half-maximal response (EC50) in experiment [3] was found to be 426 ± 41.8 nM; in experiment [4], 41.1 ± 11.1 nM.

As for `CC(=O)N[C@H]1C[C@@](N)(C(=O)O)[C@@H]2[C@@H](C(=O)O)[C@@H]21` (relative stereo) [Example 23, (1S*, 2S*, 4S*, 5R*, 6S*) 4-Acetylamino-2-amino-bicyclo[3.1.0]hexane-2,6-dicarboxylic acid], the inhibition constant (Ki) in experiment [1] was found to be 214 ± 14.6 nM; in experiment [2], 772 ± 38.8 nM. The EC50 was 1350 nM in experiment [3] and 1730 nM in experiment [4].

As for `N[C@@]1(C(=O)O)C[C@H](NC(=O)c2ccccc2)[C@H]2[C@H](C(=O)O)[C@H]21` (relative stereo) [Example 24, (1S*, 2S*, 4S*, 5R*, 6S*) 2-Amino-4-benzoylamino-bicyclo[3.1.0]hexane-2,6-dicarboxylic acid], the figures for the Ki in experiment [1] and in experiment [2] were 9.54 ± 0.73 nM and 511 ± 89 nM, respectively. The EC50 worked out at 60.7 ± 1.03 nM in experiment [3] and 18.1 ± 2.87 nM in experiment [4].
